# Measured values published in article PMC5557372 (ChemMedChem, 2017).
# Where “and” joins values, the source holds several entries; their conditions need not be identical. Identical values can stand only once. Like-named read-outs stand apart in the source and are kept apart here.
# Legend:
# Complex II (CII) = Complex II (CII) (Rattus norvegicus, UniProt P21913+Q641Z9+Q6PCT8); assay: Complex II inhibition assay; assay type: biochemical; conditions: for CII inhibition activity (in words): rat heart mitochondria; for LLE: Ligand-Lipophilicity Efficiency (LLE = pIC50-ClogP)
# Sequence of Complex II (CII) (P21913 31-282): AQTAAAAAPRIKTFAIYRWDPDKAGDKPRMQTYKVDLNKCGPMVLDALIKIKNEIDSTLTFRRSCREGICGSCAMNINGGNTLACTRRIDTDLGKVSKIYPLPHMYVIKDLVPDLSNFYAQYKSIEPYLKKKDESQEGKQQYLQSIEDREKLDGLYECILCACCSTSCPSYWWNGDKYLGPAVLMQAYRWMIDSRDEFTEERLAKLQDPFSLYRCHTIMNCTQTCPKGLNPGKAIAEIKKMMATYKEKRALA
# Sequence of Complex II (CII) (Q641Z9 30-169 limits assumed): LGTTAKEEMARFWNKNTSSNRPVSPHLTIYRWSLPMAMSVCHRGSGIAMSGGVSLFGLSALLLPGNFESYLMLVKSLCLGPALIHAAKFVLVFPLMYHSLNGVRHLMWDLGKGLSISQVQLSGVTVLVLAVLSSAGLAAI
# Sequence of Complex II (CII) (Q6PCT8 57-159): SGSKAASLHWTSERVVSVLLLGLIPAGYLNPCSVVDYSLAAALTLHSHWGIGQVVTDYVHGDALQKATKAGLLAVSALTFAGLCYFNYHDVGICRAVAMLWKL
# Sequence of Complex II (CII) (Q920L2 35-656 partner): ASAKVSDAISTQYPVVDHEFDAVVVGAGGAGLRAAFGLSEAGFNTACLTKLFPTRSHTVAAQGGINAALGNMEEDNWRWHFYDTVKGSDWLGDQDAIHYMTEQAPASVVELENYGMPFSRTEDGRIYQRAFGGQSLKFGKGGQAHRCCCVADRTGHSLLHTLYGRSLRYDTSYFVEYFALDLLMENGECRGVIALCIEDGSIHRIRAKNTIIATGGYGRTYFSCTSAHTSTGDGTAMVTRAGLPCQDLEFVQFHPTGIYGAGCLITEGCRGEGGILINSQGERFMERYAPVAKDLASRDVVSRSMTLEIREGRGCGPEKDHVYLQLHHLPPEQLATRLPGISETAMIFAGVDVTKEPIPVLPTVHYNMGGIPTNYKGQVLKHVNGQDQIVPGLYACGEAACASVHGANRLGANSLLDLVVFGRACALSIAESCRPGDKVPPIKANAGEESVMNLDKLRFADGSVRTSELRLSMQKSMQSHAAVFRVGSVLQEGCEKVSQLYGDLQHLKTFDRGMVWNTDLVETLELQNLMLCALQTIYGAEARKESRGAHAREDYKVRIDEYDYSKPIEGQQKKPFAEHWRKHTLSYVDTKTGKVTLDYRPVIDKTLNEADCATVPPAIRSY
# [1] = system: PC3 prostate cancer cells under hypoxia; assay: Hypoxia cytotoxicity in microfluidic culture
# bovine CII = conditions: read-out: bovine CII IC50; cited from earlier work
# HEK293 cells = assay: MTS cytotoxicity assay, HEK293; conditions: for IC50: Homo sapiens, HEK293, 48 h, read-out: HEK293 IC50
# 22Rv1 cells = assay: Seahorse XF metabolic parameters; assay type: cell-based, human; conditions: 22Rv1, 48 hour incubation
# [2] = molecular target: Complex I (NADH ubiquinone-oxidoreductase) (Mus musculus, UniProt P03888+Q91WD5+Q9DC70); assay: Complex I inhibition assay; assay type: biochemical; conditions: for Selectivity Ratio (CII:CI): Complex I IC50 / Complex II IC50
# [3] = system: PC3 prostate cancer cells; assay: MTS cytotoxicity assay, PC3; conditions: Homo sapiens, 48 h, read-out: PC3 IC50
# [4] = system: DU-145 prostate cancer cells; assay: MTS cytotoxicity assay, DU-145; conditions: Homo sapiens, DU-145, 48 h, read-out: DU-145 IC50
# [5] = system: 22Rv1 prostate cancer cells; assay: MTS cytotoxicity assay, 22Rv1; conditions: 22Rv1, 48 hours; plateau beyond
# CII = conditions: read-out: CII IC50, cited from earlier work
# [6] = CII IC50, rat heart mitochondria, mean of n = 4 ± S.D.
smiles,measurement,setting,value
"CCCCCC(O)c1c(O)nc(OC)c(OC)c1O (racemic) [compound 18, (rac)-3-(1-hydroxyhexyl)-5,6-dimethoxypyridine-2,4-diol]",CII inhibition activity (in words),Complex II (CII),no CII inhibition activity
same,inhibition at 0.1 µM,Complex II (CII); read-out: inhibition of CII at 100 nM concentration,0%
same,cytotoxic effect under hypoxia (in words),[1]; up to 10 μM,no cytotoxic effect
"CCCCCC(O)c1cnc(OC)c(OC)c1O (racemic) [compound 19, (rac)-5-(1-hydroxyhexyl)-2,3-dimethoxypyridin-4-ol]",CII inhibition activity (in words),Complex II (CII),inactive
"COc1nc(O)c(C(=O)c2ccco2)c(O)c1OC [16a, (2,4-dihydroxy-5,6-dimethoxypyridin-3-yl)(furan-2-yl)methanone]",CII inhibition activity (in words),Complex II (CII),abrogates CII inhibition activity
"CCCCC(=O)c1c(O)nc(OC)c(OC)c1O [16b, 1-(2,4-dihydroxy-5,6-dimethoxypyridin-3-yl)pentan-1-one]",IC50,Complex II (CII); [6],345 nM and 346 nM
same,LLE,Complex II (CII),5.37
same,IC50,bovine CII,96 nM
"CCCCCC(=O)c1c(O)nc(OC)c(OC)c1O [16c, 1-(2,4-dihydroxy-5,6-dimethoxypyridin-3-yl)hexan-1-one]",IC50,"Complex II (CII); CII IC50 expressed in μg/mL, conversion of the nM IC50",64 nM
same,LLE,Complex II (CII),5.62
same,IC50,HEK293 cells,71 ± 5.2 µg/mL
same,selectivity for DU-145 and 22Rv1 prostate cancer cells over HEK293,HEK293 cells; ratio of IC50 values,~7 fold
same,oxygen consumption rate,22Rv1 cells; 1-100 μM,substantially reduced in a dose-dependent manner
same,ATP production,22Rv1 cells; vs no treatment control,inhibition of ATP production
same,basal respiration,22Rv1 cells; vs no treatment control,reducing basal respiration
same,maximal respiration,22Rv1 cells; vs no treatment control,reduction of maximal respiration
same,IC50,[2],> 10000 nM
same,Selectivity Ratio (CII:CI),[2],>156
same,cell death,[1]; 1 μM,12%
same,IC50,[3],55 ± 9.4 µg/mL
same,IC50,[4],13 ± 1.6 µg/mL
"COc1nc(O)c(C(=O)CCCCOCc2ccccc2)c(O)c1OC [16d, 5-(benzyloxy)-1-(2,4-dihydroxy-5,6-dimethoxypyridin-3-yl)pentan-1-one]",IC50,Complex II (CII); [6],281 ± 88.7 nM
"COc1nc(O)c(C(=O)CCCCO)c(O)c1OC [16e, 1-(2,4-dihydroxy-5,6-dimethoxypyridin-3-yl)-5-hydroxypentan-1-one]",IC50,Complex II (CII); [6],3730 ± 1020 nM
same,fold greater CII activity than diazoxide,Complex II (CII); vs literature IC50 of diazoxide,10 fold
"CCCCCCC(=O)c1c(O)nc(OC)c(OC)c1O [16f, 1-(2,4-dihydroxy-5,6-dimethoxypyridin-3-yl)heptan-1-one]",IC50,Complex II (CII); [6],283 nM
same,LLE,Complex II (CII),4.57
same,IC50,bovine CII,20 nM
"CCCCCCCC(=O)c1c(O)nc(OC)c(OC)c1O [16g, 1-(2,4-dihydroxy-5,6-dimethoxypyridin-3-yl)octan-1-one]",LLE,Complex II (CII),4.89
"CCCCCCCCC(=O)c1c(O)nc(OC)c(OC)c1O [16h, 1-(2,4-dihydroxy-5,6-dimethoxypyridin-3-yl)nonan-1-one]",LLE,Complex II (CII),4.93
"CCCCCCCCCCC(=O)c1c(O)nc(OC)c(OC)c1O [16j, 1-(2,4-dihydroxy-5,6-dimethoxypyridin-3-yl)undecan-1-one]",LLE,Complex II (CII),4.32
"CCCCCCCCCCCCC(=O)c1c(O)nc(OC)c(OC)c1O [16k, 1-(2,4-dihydroxy-5,6-dimethoxypyridin-3-yl)tridecan-1-one]",LLE,Complex II (CII),3.76
same,IC50,"Complex II (CII); read-out: CII IC50 expressed in μg/mL, conversion of the nM IC50",3.29 nM
same,IC50,HEK293 cells,28 ± 2 µg/mL
same,selectivity for 22Rv1 over HEK293 cell line,HEK293 cells; ratio of IC50 values,14 fold
same,Selectivity Ratio (CII:CI),[2],>3030
same,concentration at which maximal cytotoxicity is reached,[5],10000 ng/mL
"COc1[nH]c(=O)c(C(=O)[C@@H](C)C[C@H](C)[C@@H](Cl)CCl)c(O)c1OC [Atpenin A5, atpenin A5, reference compound]",IC50,Complex II (CII); [6],3.3 ± 2 nM
same,IC50,CII,3.6 to 10 nM
O=C(O)CC(=O)O [Malonate],IC50,CII,40000 nM
O=C(CC(=O)C(F)(F)F)c1cccs1 [Thenoyltrifluoroacetone],IC50,CII; control compound in CII assay kits,30000 nM
"CCCCCC(=O)c1cnc(OC)c(OC)c1O [compound 20, 1-(4-hydroxy-5,6-dimethoxypyridin-3-yl)hexan-1-one]",CII inhibition activity at 100 nM concentration (in words),Complex II (CII),no activity
"CCCCCC(OC)c1cnc(OC)c(OC)c1O (stereo not shown) [compound 24, 2,3-dimethoxy-5-(1-methoxyhexyl)pyridin-4-ol]",CII inhibition activity at 100 nM concentration (in words),Complex II (CII),no activity
"Cc1c(C)c2c(c(C)c1OC(=O)CCC(=O)O)CC[C@@](C)(CCC[C@H](C)CCC[C@H](C)CCCC(C)C)O2 [α-Tocopheryl succinate, α -Tocopheryl succinate]",IC50,CII,42000 nM
